Measurements as given in US8759390B2, “Chromene modulators of chemokine receptor activity” (Bristol-Myers Squibb Company, priority 2008, dated 2014).

biological target: T1, CCR2 (Homo sapiens, UniProt P41597); experiment: CCR2 binding (125I-human MCP-1 competition on human PBMC / THP-1 cells); details: n = 1 unless otherwise noted; tested in one of the assays described
T1 construct: THP-1 human monocytic leukemic cell line, which expresses endogenous CCR2; endogenous in cells; host or cells: THP-1 human monocytic leukemia cells, or human PBMC / human monocytes
T1 sequence (P41597 1-360 isoform P41597-2): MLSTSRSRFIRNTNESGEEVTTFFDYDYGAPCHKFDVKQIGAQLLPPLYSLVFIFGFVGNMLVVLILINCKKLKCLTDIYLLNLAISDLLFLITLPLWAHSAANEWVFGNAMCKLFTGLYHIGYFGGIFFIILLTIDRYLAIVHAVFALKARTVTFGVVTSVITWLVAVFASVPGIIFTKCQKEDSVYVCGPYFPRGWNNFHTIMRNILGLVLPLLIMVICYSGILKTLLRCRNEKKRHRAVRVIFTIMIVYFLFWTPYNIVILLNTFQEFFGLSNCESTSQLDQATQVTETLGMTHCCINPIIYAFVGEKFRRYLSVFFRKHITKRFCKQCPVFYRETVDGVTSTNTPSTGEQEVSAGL
Description: Antagonism of MCP-1 Binding to Human PBMC
Millipore filter plates (#MABVN1250) are treated with 100 μl of binding buffer (0.5% bovine serum albumin, 20 mM HEPES buffer and 5 mM magnesium chloride in RPMI 1640 media) for thirty minutes at room temperature. To measure binding, 50 μl of binding buffer, with or without a known concentration compound, is combined with 50 μl of ^125-I labeled human MCP-1 (to give a final concentration of […] radioligand) and 50 μl of binding buffer containing 5×10^5 cells. Cells used for such binding assays can include human peripheral blood mononuclear cells isolated by Ficoll-Hypaque gradient centrifugation, human monocytes (Weiner et al., J. Immunol. Methods. 1980, 36, 89), or the THP-1 cell line which expresses the endogenous receptor. The mixture of compound, cells and radioligand are incubated at room temperature for thirty minutes. Plates are placed onto a vacuum manifold, vacuum applied, and the plates washed three times with binding buffer containing 0.5M NaCl. The plastic skirt is removed from the plate, the plate allowed to air dry, the wells punched out and counted. The percent inhibition of binding is calculated using the total counts obtained in the absence of any competing compound and the background binding determined by addition of 100 nM MCP-1 in place of the test compound.
THP-1 Monocytic Cell Binding: Whole Cell-Based Assay
The human CCR2 binding assay was also established with the THP-1 human monocytic leukemic cell line, which expresses endogenous CCR2, using ^125I-human MCP-1 as the tracer ligand. Radioligand competition binding assays were used for assessment of binding affinity of test compounds to the CCR2 receptor. For radioligand competition studies, 100 μl containing 2.5×10^5 THP-1 cells/well (in assay buffer containing 50 mM HEPES, pH7.4, 5mM MgCl2, 1 mM CaCl2 and 0.5% BSA) were added to 96-well assay plates containing the test compounds in 3-fold serial dilution, with final concentrations ranging from 5 μM to […]. Subsequently, 50 μl ^125I-MCP-1 radioligand at a final concentration of 0.2 nM in assay buffer were added to the reaction. After a 90 minute incubation period at room temperature, the binding reaction was terminated by harvesting on GF/B filter plates (PerkinElmer Cat. No. 6005177) followed by washing with ice-cold wash buffer (50 mM HEPES, pH 7.4, 0.1% BSA, 0.5 M NaCl) to remove unbound ligand. After washing, the plate was dried for 45 minutes at 60° C. followed by addition of 40 μl MicroScint 20 scintillation fluid, sealed and analyzed by the Packard TopCount reader. Non-specific binding was determined in the presence of 10 μM (a molar excess of […]) of an in-house CCR2 small molecule antagonist (CCR2 IC50=2 nM). Specific binding of ^125I-MCP-1 was calculated as the difference between total and non-specific binding. The competition data was plotted as a percentage inhibition of radioligand specific bound in the absence of test compound (percent of total signal). After correcting for non-specific binding, IC50 values were determined The IC50 is defined as the concentration of test compound required to reduce ^125I-MCP-1 specific binding by 50% and was calculated using the four parameter logistic equation to fit the normalized data.

`O=C(O)C1=Cc2ccccc2OC1c1ccc2ccccc2n1` (racemic) [Example 5-22, 2-(quinolin-2-yl)-2H-chromene-3-carboxylic acid] was tested. Which Ki did it give?
The Ki was 2100 nM.

`O=C(O)C1=Cc2ccccc2OC1c1ccc2c(c1)OCO2` (racemic) [Example 3, 2-(benzo[d][1,3]dioxol-5-yl)-2H-chromene-3-carboxylic acid] was tested. Which Ki did it give?
Its Ki is 1100 nM.

`O=C(O)C1=Cc2ccccc2OC1c1ccc2ccccc2c1` (racemic) [Example 5-4, 2-(naphthalen-2-yl)-2H-chromene-3-carboxylic acid] was tested. Which Ki did it give?
The Ki was 1800 nM.

With `O=C(O)C1=Cc2ccccc2OC1c1ccc(C(F)(F)F)c(Cl)c1` (racemic) [Example 7-5, 2-(3-chloro-4-trifluoromethyl-phenyl)-2H-chromene-3-carboxylic acid] as the molecule, how does the Ki read?
The Ki was 390 nM.

For `O=C(O)C1=Cc2ccccc2OC1c1ccc(Cl)c2ccccc12` (racemic) [Example 5-2, 2-(4-chloronaphthalen-1-yl)-2H-chromene-3-carboxylic acid], which Ki is on record?
The Ki was 1900 nM.

For `O=C(O)C1=Cc2ccccc2OC1c1ccc(Cl)c(C(F)(F)F)c1` (racemic) [Example 2-1, 2-(4-chloro-3-(trifluoromethyl)phenyl)-2H-chromene-3-carboxylic acid], which Ki is on record?
The Ki was 75 nM.

For `O=C(O)C1=Cc2ccccc2OC1c1ccc(Cl)c(Cl)c1` (single isomer, unassigned; (+)) [Example 6b, (+)-2-(3,4-dichlorophenyl)-2H-chromene-3-carboxylic acid], which Ki is on record?
The Ki was 1700 nM.

`O=C(O)C1=Cc2ccccc2OC1c1ccc(F)c(C(F)(F)F)c1` (racemic) [Example 5-24, 2-(3-trifluoromethyl-4-fluoro-phenyl)-2H-chromene-3-carboxylic acid] was tested. Which Ki did it give?
The Ki was 1100 nM.

Which Ki does the source give for `O=C(O)C1=Cc2ccc3ccccc3c2OC1c1ccc(Cl)c(Cl)c1` (racemic) [Example 9-3, 2-(3,4-dichlorophenyl)-2H-benzo[h]chromene-3-carboxylic acid] here?
The Ki was 1200 nM.

Which Ki does the source give for `O=C(O)C1=Cc2ccc(Br)cc2OC1c1ccc(Cl)c(Cl)c1` (racemic) [Example 9-5, 2-(3,4-dichlorophenyl)-7-bromo-2H-chromene-3-carboxylic acid] here?
Its Ki is 720 nM.

For `O=C(O)C1=Cc2ccccc2OC1c1ccc(Cl)nc1` (racemic) [Example 7-2, 2-(6-chloropyridin-3-yl)-2H-chromene-3-carboxylic acid], which Ki is on record?
The Ki was 4500 nM.
